# Source: patent US20230105108A1, “COMPOUNDS FOR THE TREATMENT OF BACTERIAL INFECTIONS AND POTENTIATION OF ANTIBIOTICS” (GEORGIA STATE UNIVERSITY RESEARCH FOUNDATION, INC., priority 2019, published 2023)
# Where a name gives a salt, the structure may show the parent alone. Read-outs that look alike come from different tables or passages of the source.
# Tests used:
# Assay type in all cases: cell-based
# E. coli (ATCC 25922) = assay: MIC determination, sensitization fold and FIC index on E. coli; conditions: for Sensitization: compound up to 25 μM; for MIC: Escherichia coli; for MIC of AB with MD-124: MD-124 concentration 5 μg/ml
# Method: Bacteria culture and MICs determination: Gram-negative bacteria were cultured in Mueller Hinton II cation-adjusted broth. Gram-positive bacteria were cultured in LB broth. Mycobacterium smegmatis was cultured in Middlebrook 7H9 Broth. MICs of antibiotics itself were determined by performing two-fold serial dilutions of antibiotics. MICs of antibiotics in the presence of bacterial sensitizers were determined by performing two-fold serial dilutions of antibiotics with or without a constant concentration of bacterial sensitizers. The MICs tests were performed on 96-well plates with a final volume of 200 μl Mueller Hinton II cation-adjusted broth in each well. Each well was inoculated with 5×10^5 CFU/ml bacteria and was incubated for 24 h at 37° C. with continuous shaking of 200 rpm. The bacterial density was then determined by OD600. Bacterial growth %=OD600 of antibiotic treatment group/OD600 of antibiotic non-treatment group. MICs was determined as the concentrations that inhibit more than 90% of bacteria growth.
# Sensitization fold determination and FIC index calculations: Sensitization fold=MIC of antibiotic only/MIC of antibiotic with bacterial sensitizer. […] Since the MICs were determined by performing two-fold serial dilutions of antibiotic, so the sensitization fold can is the times of 2.
# FIC index between compound a and b was calculated according to the formula below: […]
# FIC≤0.5: Synergy; FIC between 0.5 and 1: Additive; FIC between 1 and […]: no interaction; FIC >4: antagonism.
# Bacteria strains (as indicated in Table 5B) were cultured with rifampicin at various concentrations in the presence or absence of 10 μM of the indicated compound for 20 h at 37° C. The MIC, sensitization, cytotoxicity, and MIC on mycobacteria were tested according to methods described herein. […] The sensitization activities of compounds on MRSA were tested using rifampicin. The sensitization activities of compounds on E. coli were tested using rifampicin.
# [1] = Cytotoxicity in H9c2 cells (CCK-8); conditions: rat, H9c2 cells; H9c2 cell line
# Method: The cytotoxicity in H9c2 (ATCC®CRL-1446™) cells was also determined. The H9c2 cells were maintained in DMEM (Dulbecco's Modified Eagle's Medium) supplemented with 10% fetal bovine serum (MidSci; S01520HI) and 1% penicillin-streptomycin (Sigma-Aldrich; P4333) at 37° C. with 5% CO2. The H9c2 cells were seeded in 96-well plate one day before the experiment. Different concentrations of di-amidine compounds were added into the H9c2 cells. The cells were then incubated with the compounds for 24 hours at 37° C. with 5% CO2. The cell viability was tested by the CCK-8. Specifically, after 24 hour incubation, 10 μL CCK-8 was added to each well. After 3 hours incubation at 37° C., the absorbance at 450 nm was recorded by a plate reader.
# B. subtilis = assay: MIC determination and sensitization fold on B. subtilis; conditions: for Sensitization fold: erythromycin; for MIC: Bacillus subtilis, 24 h, compound alone, read-out: MIC; for sensitization fold with 5.5 μg/ml DB2560: B. subtilis towards the antibiotic
# [2] = ATCC25922, 24 h, E. coli, compound alone, read-out: MIC
# [3] = E. coli towards the antibiotic, MD-124 5 μg/ml
# [4] = ATCC25922, 24 h, E. coli (wild type), antibiotic alone, read-out: MIC of AB only
# [5] = E. coli, rifampicin, compound at 10 μM
compound,measurement,setting,value
"COc1cc(C2=NCCN2)ccc1OCc1cccc(COc2ccc(C3=NCCN3)cc2OC)c1F [DB2555, dihydrochloride]",Sensitization,"E. coli (ATCC 25922); E. coli, rifampicin",No effect up to 25 μM
same,MIC,E. coli (ATCC 25922); [2],> 50 µM
same,CC50 at 24 h,[1],50 µM
Cc1cc(-c2nc3cc(C(=N)N)ccc3n2C)sc1-c1ccc(OCCCCOc2ccc(C(=N)N)cc2)cc1 [DB2583],Sensitization,"E. coli (ATCC 25922); E. coli, rifampicin",No effect up to 25 μM
same,MIC,E. coli (ATCC 25922); [2],100 µM
same,Sensitization fold,"B. subtilis; B. subtilis, compound at 12 μM",16-fold at 12 μM
same,MIC,B. subtilis; B. subtilis,25 µM
same,CC50 at 24 h,[1],12.5 µM
"CC[C@H]1OC(=O)[C@H](C)[C@@H](O[C@H]2C[C@@](C)(OC)[C@@H](O)[C@H](C)O2)[C@H](C)[C@@H](O[C@@H]2O[C@H](C)C[C@H](N(C)C)[C@H]2O)[C@](C)(O)C[C@@H](C)C(=O)[C@H](C)[C@@H](O)[C@]1(C)O [Erythromycin, reference compound]",MIC of AB with MD-124,E. coli (ATCC 25922); E. coli,400 ng/mL
same,MIC,"E. coli (ATCC 25922); ATCC25922, read-out: MIC of erythromycin in the presence of 10 μg/ml MD-100, wild-type E. coli",1600 ng/mL
same,MIC of erythromycin in the absence of DB2560,B. subtilis; B. subtilis,0.05 ng/mL
same,MIC of erythromycin in the presence of DB2560,B. subtilis; B. subtilis,0.0015 ng/mL
"C[C@H]1COc2c(N3CCN(C)CC3)c(F)cc3c(=O)c(C(=O)O)cn1c23 [Levofloxacin, reference compound]",Sensitization fold,E. coli (ATCC 25922); [3],8 fold
same,MIC of AB with MD-124,E. coli (ATCC 25922); E. coli,6.2 ng/mL
same,MIC,E. coli (ATCC 25922); [4],50 ng/mL
"Cc1ccc(COc2ccc(C(=N)N)cc2)cc1COc1ccc(C(=N)N)cc1 [MD-119, 1,3-Bis {(4-amidino)-phenoxymethyl}-6-methylbenzene dihydrochloride]",Sensitization fold,"E. coli (ATCC 25922); E. coli, rifampicin, compound at 12.5 μM",4-fold at 12.5 μM.
same,Sensitization fold,"E. coli (ATCC 25922); E. coli, rifampicin, compound at 25 μM","32-fold at 25 μM,"
same,MIC,"E. coli (ATCC 25922); ATCC25922, 24 h",100 µM
same,Sensitization fold,"B. subtilis; B. subtilis, compound at 6 μM",16-fold at 6 μM
same,Sensitization fold,"B. subtilis; B. subtilis, compound at 12 μM","32-fold at 12 μM,"
same,MIC,B. subtilis; B. subtilis,25 µM
"N=C(N)c1ccc(COc2cc(OCc3ccc(C(=N)N)cc3F)cc(C(F)(F)F)c2)c(F)c1 [MD-127, dihydrochloride]",Sensitization fold,E. coli (ATCC 25922); [5],516-fold at 10 μM
same,MIC,E. coli (ATCC 25922); [2],100 µM
"N=C(N)c1ccc(CCc2cc(CCc3ccc(C(=N)N)cc3)cc(C(F)(F)F)c2)cc1 [MD-128, 1,3-Bis {(4-amidino)-phenethyl}-5-trifluoromethylbenzene dihydrochloride]",Sensitization fold,E. coli (ATCC 25922); [5],516-fold at 10 μM
same,MIC,"E. coli (ATCC 25922); ATCC25922, 24 h",100 µM
"COc1c(N2C[C@@H]3CCCN[C@@H]3C2)c(F)cc2c(=O)c(C(=O)O)cn(C3CC3)c12 [Moxifloxacin, reference compound]",Sensitization fold,E. coli (ATCC 25922); [3],8 fold
same,MIC of AB with MD-124,E. coli (ATCC 25922); E. coli,6.2 ng/mL
same,MIC,E. coli (ATCC 25922); [4],50 ng/mL
"CO[C@H]1/C=C/O[C@@]2(C)Oc3c(C)c(O)c4c(O)c(c(/C=N/N5CCN(C6CCCC6)CC5)c(O)c4c3C2=O)NC(=O)/C(C)=C\C=C\[C@H](C)[C@H](O)[C@@H](C)[C@@H](O)[C@@H](C)[C@H](OC(C)=O)[C@@H]1C [Rifapentine, reference compound]",Sensitization fold,E. coli (ATCC 25922); [3],32 fold
same,MIC of AB with MD-124,E. coli (ATCC 25922); E. coli,800 ng/mL
same,MIC,E. coli (ATCC 25922); [4],25000 ng/mL
"CO[C@H]1/C=C/O[C@@]2(C)Oc3c(C)c(O)c4c(O)c(c5c(nc6cc(C)ccn65)c4c3C2=O)NC(=O)/C(C)=C\C=C\[C@H](C)[C@H](O)[C@@H](C)[C@@H](O)[C@@H](C)[C@H](OC(C)=O)[C@@H]1C [Rifaximin, reference compound]",Sensitization fold,E. coli (ATCC 25922); [3],64 fold
same,MIC of AB with MD-124,E. coli (ATCC 25922); E. coli,200 ng/mL
same,MIC,E. coli (ATCC 25922); [4],12500 ng/mL
"C[C@@H](O)[C@H]1C(=O)N2C(C(=O)O)=C(S[C@@H]3CN[C@H](C(=O)Nc4cccc(C(=O)O)c4)C3)[C@H](C)[C@H]12 [entrapenem, reference compound]",sensitization fold with 5.5 μg/ml DB2560,B. subtilis,4 fold
"COc1cccc(OC)c1C(=O)N[C@@H]1C(=O)N2[C@@H]1SC(C)(C)[C@@H]2C(=O)O [methicillin, reference compound]",sensitization fold with 5.5 μg/ml DB2560,B. subtilis,4 fold
"polymyxin B nonapeptide [PMBN, reference compound]",Sensitization fold,"E. coli (ATCC 25922); E. coli, rifampicin, 20 μg/ml bacterial sensitizer",16 fold
